The test system of one series is IL10/Nox1^dKO mice. Kind of series: Salubrinal treatment of spontaneous colitis in IL10/Nox1 dKO mice. The series is classed as in vivo. An excerpt: To assess the pathogenic role of goblet cells in UC, WT and Nox1^KO mice were subjected to oral administration of DSS or rectal administration of TNBS. […] IRE1beta and ATF6alpha branch signaling were extended in colonic epithelial cells as evidenced by the increased XBP-1 mRNA splicing, the induction of GRP78, GRP94, PDI at both mRNA and protein levels, and dilated cisternae and gross distortion of the ER in goblet cells. […] Consistent with reduced eIF2α phosphorylation, increased expression of PPP1R15A/GADD34, a stress-inducible protein that recruits the catalytic subunit of protein phosphatase 1 and promotes eIF2alpha dephosphorylation, was detected in agreement with our previous data in humans^1. EIF2alpha phosphorylation is cytoprotective during ERS, because cells are sensitized to cell death when this pathway is genetically ablated^33 and protected when it is ectopically enforced^34. To test whether a selective pharmacological inhibitor of GADD34-mediated eIF2alpha dephosphorylation may alleviate colitis, IL10/Nox1^dKO mice were treated with 1 mg/kg salubrinal^35 for up to three weeks.

For a further series, the system named is WT and Nox1^KO mice. Kind of series: Tunicamycin (ERS inducer)-induced colitis in WT and Nox1 KO mice. In kind it is in vivo. The following applies: mice overexpressing goblet cells (Nox1^KO) versus WT mice.
Where [1] appears, read: IL10/Nox1^dKO mice, 1 mg/kg for up to three weeks.
Where [2] appears, read: salubrinal-treated IL10/Nox1^dKO mice.

Regarding `O=C(/C=C/c1ccccc1)NC(NC(=S)Nc1cccc2cccnc12)C(Cl)(Cl)Cl` (centres unmarked) [salubrinal], in the series with IL10/Nox1^dKO mice (setting [1]), the immune cell infiltration entry was “markedly prevented”; the “mucosal architecture and goblet cells” value is listed as “restored intact mucosal architecture with normal goblet cells”. Moreover, in the series on IL10/Nox1^dKO mice (IL10/Nox1^dKO mice, 1 mg/kg for up to three weeks, at least in part via CHOP expression), the “apoptosis of colonic mucosa” value is reported as “protected colonic mucosa against apoptosis”. In addition, in the series on IL10/Nox1^dKO mice (IL10/Nox1^dKO mice, 1 mg/kg for up to three weeks, mainly detected in colonic epithelial cells), the “eIF2alpha phosphorylation in colonic mucosa” value was “caused robust eIF2alpha phosphorylation”. In the series on IL10/Nox1^dKO mice (setting [2]), the “Grp78/Bip and Grp94 expression” value is listed as “trend toward reduced”; the “amount of colonic and splenic Treg cells” value is reported as “strongly decreased to baseline”; the “levels of proinflammatory cytokines” value was “strongly decreased to baseline”.

Turning to tunicamycin, in the series on WT and Nox1^KO mice, the “severity of colitis induced by tunicamycin treatment” value is recorded as “significantly induced a more severe colitis in mice overexpressing goblet cells than in WT mice”.

The values are drawn from patent US9217156B2, “Non human animal model for ulcerative colitis and its main complications” (Institut National de la Sante et de la Recherche Medicale …, priority 2012, dated 2015).
